In EPA's ToxValDB 9.5:
“And” between values parts separate entries of the source, which are not always exact repeats. Equal values may be shown once.

Assays:
Cavia sp. = details: repeat dose other; inhalation
Rattus norvegicus [1] = test system: Rattus norvegicus
Canidae [2] = details: repeat dose other; inhalation; Dog Other
Homo sapiens [3] = details: clinical, oral
Rattus norvegicus [4] = details: oral, M/F
Oryctolagus sp. [5] = details: acute; dermal; New Zealand
Rattus norvegicus [6] = assay: LD100; higher = less toxic; details: acute; oral
Rattus norvegicus [7] = details: subchronic, oral, liver and kidney toxicity
Rattus norvegicus [8] = details: subchronic; duration: 12 weeks; oral; diet; Kidney: Toxicity + Liver: Toxicity
Rattus norvegicus [9] = details: M/F
Anas platyrhynchos = details: oral
Homo sapiens [10] = details: clinical; oral; diet; M; rbc che depression
Homo sapiens [11] = details: clinical; duration: 47 days; oral; capsule; Blood: Hematological effects
Oryctolagus sp. [12] = details: acute; duration: 1 days; inhalation; M; New Zealand; neurological
Homo sapiens [13] = details: clinical; duration: 56 days; oral; capsule; M; neurological
Cavia porcellus = details: repeat dose other; oral; Guinea Pig
Gallus gallus = details: repeat dose other; oral
Rattus norvegicus [14] = assay: LD0; higher = less toxic; details: acute
Sus scrofa = details: oral, Not specified; for LOEL: duration: 14 weeks, M/F, Changes in serum testosterone and estradiol and testes weight
Canidae [15] = details: subchronic; duration: 7 weeks; oral; gavage; M/F; Beagle
Oryctolagus sp. [16] = details: developmental; duration: 12 days; oral; gavage; F; New Zealand; developmental
[17] = short-term, duration: 28 days, oral, diet, Fischer 344

## C#C [Ethyne]
Cavia sp.
  NOAEL: 852000 mg/m3
Rattus norvegicus [1]; repeat dose other, inhalation
  NOAEL: 852000 mg/m3
Mus musculus; repeat dose other, inhalation
  NOAEL: 852000 mg/m3
Canidae [2]
  NOAEL: 852000 mg/m3

## Oc1ccc(O)cc1 [Hydroquinone]
Homo sapiens [3]; duration: 5 months, M/F, Hematologic, Urinary
  NOAEL: 4.3 mg/kg-day
Rattus norvegicus [4]; subchronic, duration: 13 weeks, gavage, Fischer 344, Deaths + Clinical Observation: Tremors Convulsions + Body Weight Changes: decrease + Absolute Organ Weight: Liver increase + Relative Organ …
  NOEL: 25 mg/kg-day

## CC(O)C(=O)O (configuration not stated) [Lactic acid]
Oryctolagus sp. [5]
  LD50: > 2000 mg/kg
Rattus norvegicus [1]; acute, Inhalation, Fischer 344
  LC50: > 7.94 µg/mL
Rattus norvegicus [1]; subchronic, duration: 13 weeks, dermal, F, Sprague-Dawley
  LOAEL: 886 mg/kg-day
Mus musculus; reproduction developmental, duration: 10 days, oral, gavage, CD1, generation: F1
  NOAEL: ≥ 570 mg/kg-day
Mus musculus; reproduction developmental, duration: 10 days, oral, gavage, F, CD1
  NOAEL: ≥ 570 mg/kg-day
Rattus norvegicus [6]
  LD100: 11200 mg/kg

## ClC1C(Cl)C(Cl)C(Cl)C(Cl)C1Cl (configuration not stated) [Lindane]
Rattus norvegicus [7]; F
  NOAEL: 0.33 mg/kg-day
Rattus norvegicus [7]; M
  LOAEL: 1.55 mg/kg-day
Rattus norvegicus [8]
  NOAEL: 0.33 mg/kg-day
Rattus norvegicus [9]; developmental, duration: 13 weeks, oral, drinking water, Sprague-Dawley, developmental
  NOAEL: 7.6e-05 mg/kg-day
Rattus norvegicus [9]; developmental, duration: 1 days, oral, gavage, Bor:spf, developmental
  LOAEL: 1 mg/kg-day
Anas platyrhynchos
  LOAEL: 20 mg/kg-day
  NOAEL: 2 mg/kg-day

## CCOC(=O)CC(SP(=S)(OC)OC)C(=O)OCC (configuration not stated) [Malathion]
Homo sapiens [10]
  LEL: 0.34 mg/kg-day
  NOEL: 0.23 mg/kg-day
Homo sapiens [11]
  NOEL: 0.23 mg/kg-day
Oryctolagus sp. [12]
  NOAEL: 65 mg/m3
Rattus norvegicus [9]; chronic, duration: 2 years, oral, diet, Fischer-344, neurological
  NOAEL: 2 mg/kg-day
Rattus norvegicus [9]; subchronic, duration: 13 weeks, inhalation, whole body, Sprague-Dawley, respiratory
  LOAEL: 100 mg/m3
Homo sapiens [13]
  NOAEL: 0.23 mg/kg-day

## O=[N+]([O-])[O-].[K+] [Potassium nitrate]
Cavia porcellus
  LOAEL: 1130 mg/kg-day
  NOAEL: 507 mg/kg-day

## [Cl-].[Rb+] [Rubidium chloride (RbCl)]
Homo sapiens [3]; duration: 3 weeks, capsule, F
  LOAEL: 5.3 mg/kg-day

## O.O.[Na+].[Na+].[O]=[Mo](=[O])([O-])[O-] [Sodium molybdate (Na2MoO4) dihydrate]
Gallus gallus
  LOAEL: 35.3 mg/kg-day
  NOAEL: 3.5 mg/kg-day

## C[S-].[Na+] [Sodium thiomethoxide]
Rattus norvegicus [1]; acute, oral, Sprague-Dawley
  LD50: ≥ 75 mg/kg and ≤ 161 mg/kg
Rattus norvegicus [1]; acute, oral, gavage, Sprague-Dawley
  LD50: 109 mg/kg and ≥ 84 mg/kg and ≤ 146 mg/kg
Rattus norvegicus [14]; dermal, semiocclusive, Sprague-Dawley
  LD0: ≥ 400 mg/kg

## CC(=O)O[C@H]1CC[C@H]2[C@@H]3CCC4=CC(=O)CCC4=C3C=C[C@]12C [Trenbolone acetate]
Sus scrofa; chronic, diet
  LOEL: 0.002 mg/kg-day
Sus scrofa; feed
  LOEL: 2 µg/kg-day

## O=P(c1ccccc1)(c1ccccc1)c1ccccc1 [Triphenylphosphine oxide]
Canidae [15]
  LOAEL: 50 mg/kg-day

## CCCCC(CC)COC(=O)c1ccc(C(=O)OCC(CC)CCCC)c(C(=O)OCC(CC)CCCC)c1 (configuration not stated) [Tris(2-ethylhexyl) trimellitate]
Rattus norvegicus [1]; acute, oral, gavage
  LD50: > 3200 mg/kg
Rattus norvegicus [1]; acute, oral, gavage, Crj:CD
  LD50: > 2000 mg/kg
Rattus norvegicus [1]; reproduction developmental, duration: 20 days, oral, gavage, Crj:CD, generation: F1
  NOAEL: 1000 mg/kg-day
Rattus norvegicus [1]; reproduction developmental, duration: 20 days, oral, gavage, F, Crj:CD
  NOAEL: 1000 mg/kg-day
Rattus norvegicus [1]; reproduction developmental, duration: 20 days, oral, gavage, M, Crj:CD
  NOAEL: 100 mg/kg-day
Rattus norvegicus [1]; [17]
  LOAEL: 650 mg/kg-day
  NOAEL: 184 mg/kg-day
Rattus norvegicus [1]; short-term, duration: 28 days, oral, gavage, F, Crj:CD
  NOAEL: > 1000 mg/kg-day
Rattus norvegicus [1]; short-term, duration: 28 days, oral, gavage, M, Crj:CD
  NOAEL: > 1000 mg/kg-day
Mus musculus; acute, oral, gavage
  LD50: > 3200 mg/kg
Rattus norvegicus [14]; inhalation, Crj:CD
  LD0: 2600 mg/m3

## CC1=C[C@H]2O[C@@H]3[C@H](O)C[C@](C)([C@@]2(CO)[C@H](O)C1=O)[C@@]31CO1 [Vomitoxin]
Sus scrofa; repeat dose other, diet, Emesis
  NOEL: 0.25 mg/kg-day

## Cc1ccc(O)cc1 [p-Cresol]
Oryctolagus sp. [16]
  NOAEL: 5 mg/kg-day
Rattus norvegicus [4]; short-term, duration: 28 days, diet, Fischer 344, Clinical Observation: Hunched posture Rough hair coat + Body Weight Changes: Mean body weight decrease + Food Consumption: decrease + …
  NOAEL: 1000 ppm
Rattus norvegicus [4]; subchronic, duration: 13 weeks, gavage, Sprague-Dawley, Deaths + Clinical Observation: Lethargy Tremors Convulsions Coma: + Body Weight Changes: Mean body weight decrease, Body weight gain …
  NOAEL: 50 mg/kg-day
